We go through one compound from US20140315956A1, “SMALL MOLECULE INHIBITORS OF IL-6 AND USES THEREOF” (NATIONWIDE CHILDREN'S HOSPITAL, priority 2011, published 2014).

Assay [1] has as its system Stat3 phosphorylation (p-Tyr705) induced by IL-6 in LNCaP prostate cancer cells. Description: IL-6 induced Stat3 phosphorylation in LNCaP cells, Western blot. To be noted: IL-6 12.5 ng/ml 30 min, Western blot. The class given is cell-based. As for the experimental part:
LNCaP prostate cancer cells were acquired from American Type Culture Collection. Cells were maintained in RPMI 1640 medium, 1× with 4.5 g/L L-glutamine, supplemented with 10% FBS, 100 U/ml penicillin and […] streptomycin (Invitrogen), in a humidified atmosphere of 5% CO2 at 37° C.
LNCaP prostate cancer cells were seeded in T75 flasks, grown to 50% confluence and serum-starved the following night. The cells were left untreated or were treated with MDL-A (100-400 μM), 1, 2 (5-40 μM) or DMSO in the absence of FBS. After 4 hours, the cells were stimulated with 12.5 ng/ml IL-6 (Cell Signaling Technology). The cells were then harvested at 30 minutes and washed with PBS and lysed in cold M-PER lysis buffer (Pierce) containing protease inhibitors (Sigma) and phosphatase inhibitors (Roche). Lysates were centrifuged at 14,000 rpm for 15 minutes at 4° C. and supernatants were collected and stored at −20° C. until further use.
Cell lysates were assayed for their protein concentrations using the Bradford protein assay reagent (Pierce), using BSA (Fisher Scientific) as the standard. Lysate samples were adjusted for the same protein concentration, approximately 5 μg of sample protein was loaded into each of the appropriate lanes. Protein samples were separated by SDS-PAGE and electrotransferred to PVDF membranes. The membranes were washed and blocked with 5% BSA in TBST (60 mM Tris-base, 120 mM NaCl, 0.1% Tween-20) for at least one hour and incubated with anti-phospho-STAT3 (p-Tyr705) antibody, anti-STAT3 antibody or anti-GAPDH antibody (all from Cell Signaling Technology) in 5% BSA in TBST overnight at 4° C. Blots were then washed three times in TBST and incubated with a horseradish peroxidase-conjugated goat anti-rabbit IgG secondary antibody (Cell Signaling Technology) in 5% BSA in TBST for 1 hour at room temperature. The bound antibody was detected using Enhanced Chemiluminescence detection reagents (Pierce) according to the manufacturer's instructions and chemiluminescence visualized using ECL Hyperfilm (Amersham).
A general note: In western blotting, separated proteins are transferred to a membrane and probed.

For assay [2], the system named is IL-6-dependent murine hepatoma cell line MH60. To be noted: Omura and coworkers; cited from earlier work.

Entries after “also recorded” stand apart in the source; their conditions may differ.

In the case of `CCCCC1=C(C)C(=O)[C@@](C)(CN2c3ccccc3[C@]3(O)CCO[C@H]23)C1=O` [MDL-A, (+)-Madindoline A, reference compound], the “inhibition of Stat3 phosphorylation induced by IL6” value in assay [1] was “inhibit Stat3 phosphorylation; also recorded: dose dependent inhibition”. Moreover, in assay [2], the “growth of IL-6-dependent MH60 cells” value is listed as “specifically inhibited the growth”.
